Data as given in patent US9308200B2, “Dry powder formulation comprising a phosphodiesterase inhibitor” (CHIESI FARMACEUTICI S.p.A., priority 2010, dated 2016).

Tested on: OVA-induced eosinophilia in BALF
Test: Acute model of lung inflammation: OVA-induced eosinophilia in BALF of sensitized rats
Format: in vivo
Conditions: male Brown-Norway rats; micronized C2 blended with lactose, intratracheal single dose 2 hours before antigen aerosol; range in brackets 0.016 to 0.051
Description: The potency of one of the preferred compounds of the present invention was evaluated in vivo in an acute model of lung inflammation following a method described in Eur. J. Pharmacol., 2002 Feb. 22; 437(3):187-94 (which is incorporated herein by reference in its entirety), with minor modifications. Briefly, male Brown-Norway rats (150-200 g) were sensitized by intraperitoneal injection of a suspension containing ovalbumin (OVA, 1 mg/rat) and Al(OH)3 (100 mg/rat) in 1 mL of saline for 3 consecutive days. Two-three weeks later, the airway inflammation was induced by inhaled antigen (OVA, 1% in saline). Vehicle-control treated animals were exposed to an aerosol of saline. […] For the detection of inhibitory potency, micronized compound C2 was blended with lactose at different concentrations and administered by the intratracheal route as single dose 2 hours before antigen aerosol.
A dose-response curve of the inhibitory effect of the test compound on OVA-induced eosinophilia in BALF was performed and the ED50 dose of compound C2 was taken as a measure of potency in this bioassay.

CS(=O)(=O)Nc1ccc(C(=O)OC(Cc2c(Cl)c[n+]([O-])cc2Cl)c2ccc(OC(F)F)c(OCC3CC3)c2)cc1OCC1CC1 (single isomer, unassigned; (-)) [Compound C2, (−)-3-Cyclopropylmethoxy-4-methanesulfonylamino-benzoic acid 1-(3-cyclopropylmethoxy-4-difluoromethoxy-phenyl)-2-(3,5-dichloro-1-oxy-pyridin-4-yl)-ethyl ester]
ED50 dose, inhibition of OVA-induced eosinophilia in BALF: 0.028 µmol/kg
